The term MIC denotes the smallest concentration in the dilution series that meets the test's criterion for growth inhibition. Read a low MIC as greater potency.

The subject of data set [1] is S. pullorum CVCC1789. Format: cell-based, Salmonella pullorum. As for the experimental part: (§1) The antimicrobial activity of peptides was determined by the microbroth dilution method ([Zhang et al., 2014]). The bacterial strains were incubated in Mueller-Hinton (MH) medium at 28°C or 37°C overnight. Bacteria (1 × 10^5 CFU/mL) were added into 96-well plates, followed by the addition of serial dilutions of peptides (from 0.0625 to 128 μg/mL). The plates were incubated at 37°C for 18–24 h. The minimal inhibitory concentration (MIC) value was determined as the lowest peptide concentration at which no bacterial growth was observed.

The test system of data set [2] is LPS. Nature of the data set: LPS binding, BODIPY-TR-cadaverine (BC) probe displacement. To be noted: 0.5 μM LPS, 5 μM BC, Tris buffer pH 7.4; peptides 0.049 to 50 μM. On the procedure:
The BODIPY’-TR-cadaverine (BC) probe was used to determine the ability of peptides to bind to LPS ([Wang et al., 2020]). 0.5 μM LPS was incubated with 5 μM BC in […] Tris buffer (pH 7.4) for 4 h at 37°C. Subsequently, the peptides were added into the mixture and the final concentrations of peptides ranged from 0.049 to 50 μM. Ampicillin was used as the negative control. Changes in fluorescence were measured by a fluorescence spectrophotometry at room temperature (excitation/emission, 580/620 nm).

In data set [3] the test system is E. coli CVCC1515. Format: cell-based, Escherichia coli. As for the experimental part:
as §1

The test system of data set [4] is E. coli CVCC25922. Format: cell-based, Escherichia coli. On the procedure:
as §1

The format of data set [5] is cell-based, Streptococcus enteritidis. As for the experimental part:
as §1

The test system of data set [6] is intracellular E. tarda in RAW 264.7 macrophages. Format: cell-based, Edwardsiella tarda. To be noted: for killing of intracellular bacteria: 5–50× MIC, RAW 264.7; for killing of intracellular bacteria / killing efficacy against intracellular E. tarda: 18 h; for killing efficacy against intracellular E. tarda: 1. On the procedure:
For intracellular activity, RAW 264.7 macrophages (2.5 × 10^5 cells/mL) were cultured for 24 h in DMEM with 10% FBS (without antibiotics) ([Edwards and Massey, 2011]). Meanwhile, mid-log phase E. tarda were collected by centrifugation, diluted to a concentration of 2.5 × 10^8 CFU/mL in DMEM with 10% FBS (without antibiotic), and incubated with RAW 264.7 macrophages for 0.5 h. Gentamicin (1,000 μg/mL) was then added into the cells and incubated for 30 min to remove extracellular bacteria. After washing twice with PBS, […], washed again, and lysed with Hanks buffered saline solution (0.1% bovine serum albumin and 0.1% Triton-X). The numbers of intracellular bacteria were counted at 0 and 18 h, respectively.

Data set [7] deals with E. tarda. The data set can be described thus: Post-antibiotic effect (PAE). Format: cell-based, Edwardsiella tarda. To be noted: for PAE: 2 h exposure, E. tarda, 28°C, n = 3. As for the experimental part:
E. tarda cells were incubated with peptides (1×, 2×, or 4× MIC) for 2 h, diluted, and cultured at 28°C and 200 rpm. An aliquot of samples (50 μL) were taken for CFU counts at different time intervals until bacterial cultures became turbid. Bacteria treated with the N6NH2, GUON6NH2 or vancomycin were used as the positive control; bacteria without treatment were used as the blank control. The PAE was calculated using the following formula: PAE = T–C, where T is the time for the CFU counts to increase by 10-fold above the count observed immediately after drug removal, and C is the corresponding time for the untreated control ([Oh et al., 2019]).

In data set [8] the test system is murine erythrocytes. Format: cell-based, mouse. As for the experimental part: The hemolysis of peptides was evaluated by determining the amount of hemoglobin that was released from fresh mouse erythrocytes ([Flamm et al., 2019]). The blood cells were washed three times with 10 mM PBS (pH 7.4) and centrifuged for 10 min (1,500 rpm). Erythrocyte solution (8%, v/v) was mixed with peptide solutions (1:1) and incubated for 1 h at 37°C. The mixture was then centrifuged for 5 min (1,500 rpm), and the absorbance of supernatants was measured at 540 nm. Values of 0 and 100% hemolysis were determined in PBS and 0.1% triton X-100, respectively. The hemolysis of peptides was calculated using the following formula: Hemolysis (%) = [(Abs treated sample – Abs negative control)/(Abs positive control – Abs negative control)] × 100.

For data set [9], the system named is RAW 264.7 macrophages. Format: cell-based, mouse. On the procedure: To quantify peptide uptake, RAW 264.7 macrophages were grown in 12-well plates (2.5 × 10^5 cells/mL, 750 μL/well) for 24 h. Then, the cells were treated with FITC-N6NH2 and FITC-GUON6NH2 (1, 5, 10, 25, and 50× MIC) for 18 h and washed with PBS. To avoid the influence of membrane-bound FITC-labeled peptides, the cells were incubated with 0.04% trypan blue in PBS for 15 min and the fluorescence intensity was analyzed using a FACS Calibur Flow Cytometer (BD, United States) ([Duchardt et al., 2009]).

The test system of data set [10] is E. tarda. Nature of the data set: Mouse peritonitis model, survival. Format: in vivo. To be noted: 1 μmoL/kg i.p. at 1 h postinfection, ICR mice, 5 days. As for the experimental part:
To establish a peritonitis mouse model, six-week-old female ICR mice (five mice/group) were intraperitoneally injected with E. tarda (1 × 10^9 CFU/mL, 0.5 mL). The infected mice were followed by the intraperitoneal injection of N6NH2, GUON6NH2 or norfloxacin (1 μmol/kg of body weight, 0.2 mL) at 1 h postinfection, respectively. Mice injected with only bacteria or PBS were used as negative or blank controls. The survival of mice was recorded daily for 5 days.

Data set [11] relates to S. hyicus 15095. Format: cell-based, Staphylococcus hyicus. As for the experimental part: as §1
The subject of data set [12] is E. tarda. Nature of the data set: Mouse peritonitis model, bacterial counts in peritoneal fluid. Format: in vivo. As to conditions: 1 μmol/kg i.p., peritoneal fluid cells 24 h after treatment. On the procedure:
The mice were intraperitoneally infected with E. tarda (1 × 10^9 CFU/mL, 0.5 mL) and then injected with N6NH2 and GUON6NH2 (1 μmol/kg) or PBS (the blank control) in the same way at 1 h after infection. The mice were then killed at 24 h after treatment, and peritoneal fluids were obtained by washing with 5 mL of ice-cold PBS. The total number of E. tarda in the fluids was determined before any further procedures. For intracellular bacteria quantification, the other fraction was centrifuged for 5 min at 4°C (1,000 rpm). The cells were collected, treated with 1,000 μg/mL gentamicin for 30 min at 37°C to kill extracellular bacteria, and washed with ice-cold PBS twice to remove extracellular gentamicin. Subsequently, the cells were lysed and the bacteria were counted as described above for the in vitro experiment ([Kim et al., 2011]).

In brackets after ≈: the same amount, converted by molar mass. Where a SMILES comes first, the peptide text is derived from it. Bridges are numbered along the chain shown (N, C = ends). The star is where a group is joined. Orn(α-tetramethylguanidino) = CN(C)C(=N[C@@H](CCCN)C(=O)*)N(C)C

`CC(C)[C@@H]1NC(=O)CNC(=O)[C@H](CC(N)=O)NC(=O)[C@H](CCCNC(=N)N)NC(=O)[C@H](Cc2ccc(O)cc2)NC(=O)[C@H](C(C)C)NC(=O)[C@@H](NC(=O)[C@@H](NC(=O)[C@H](CC(N)=O)NC(=O)[C@H](Cc2c[nH]c3ccccc23)NC(=O)[C@H](C)NC(=O)[C@H](Cc2ccccc2)NC(=O)CN)C(C)C)CSSC[C@@H](C(=O)N[C@@H](Cc2cnc[nH]2)C(=O)N[C@@H](CCCNC(=N)N)C(=O)N[C@@H](CCCNC(=N)N)C(=O)N[C@@H](C)C(=O)N[C@@H](CC(N)=O)C(N)=O)NC(=O)[C@H](C(C)C)NC(=O)[C@H](CCCNC(=N)N)NC1=O` [N6NH2]: the minimal inhibitory concentration (MIC) came out at 8 µg/mL (≈ 3.23 µM) in data set [1]; 2 µg/mL (≈ 0.808 µM) in data set [3]; 4 µg/mL (≈ 1.62 µM) in data set [4]; 2 µg/mL (≈ 0.808 µM) in data set [5]; 8 µg/mL (≈ 3.23 µM) in data set [11]. For the same molecule, in data set [2], the “ability to bind to LPS (BC probe displacement)” value is given as “V112N6NH2 > GUON6NH2 > N6NH2 > DN6NH2 > N6PNH2”. Further, the “killing of intracellular bacteria” value in data set [6] is given as “killed all intracellular bacteria”. In addition, the “killing efficacy against intracellular E. tarda” value in data set [6] is 96.82%. For the same molecule, in [6] (24 h, 50), the “intracellular inhibition rate against E. tarda” value is on record as 96.82–100%. Besides, the PAE is listed as 1.75 h in [7] (1× MIC), 1.67 h in data set [7] (2× MIC) and 1.5 h in data set [7] (4× MIC). This molecule yielded an MHC in data set [8] greater than 128 µg/mL. The “percentages of florescent cells” value in [9] is 27.6–79.8%. Moreover, in [10], the “survival rate of mice” value is 80%. The “reduction of intracellular bacteria” value in data set [12] is 1.54 Log10 CFU.
With `CC(C)[C@@H]1NC(=O)CNC(=O)[C@H](CC(N)=O)NC(=O)[C@H](CCCNC(=N)N)NC(=O)[C@H](Cc2ccc(O)cc2)NC(=O)[C@H](C(C)C)NC(=O)[C@@H](NC(=O)[C@@H](NC(=O)[C@H](CC(N)=O)NC(=O)[C@H](Cc2c[nH]c3ccccc23)NC(=O)[C@H](C)NC(=O)[C@H](Cc2ccccc2)NC(=O)[C@H](CCCN)N=C(N(C)C)N(C)C)C(C)C)CSSC[C@@H](C(=O)N[C@@H](Cc2c[nH]cn2)C(=O)N[C@@H](CCCNC(=N)N)C(=O)N[C@@H](CCCNC(=N)N)C(=O)N[C@@H](C)C(=O)N[C@@H](CC(N)=O)C(N)=O)NC(=O)[C@H](C(C)C)NC(=O)[C@H](CCCNC(=N)N)NC1=O` [GUON6NH2] ({Orn(α-tetramethylguanidino)}-FAWNVCVYRNGVRVCHRRAN-NH2; disulfide 6-15), the MIC was determined as 8 µg/mL (≈ 3.04 µM) in data set [1]; 2 µg/mL (≈ 0.76 µM) in data set [3]; 4 µg/mL (≈ 1.52 µM) in [4]; 2 µg/mL (≈ 0.76 µM) in data set [5]; 4 µg/mL (≈ 1.52 µM) in data set [11]. In addition, the “ability to bind to LPS (BC probe displacement)” value in [2] is on record as “V112N6NH2 > GUON6NH2 > N6NH2 > DN6NH2 > N6PNH2”. Also, the “killing of intracellular bacteria” value in data set [6] was “killed all intracellular bacteria”. Moreover, in [6], the “killing efficacy against intracellular E. tarda” value is recorded as “over 97.07%”. The PAE was 1.54 h in data set [7] (1× MIC), 1.51 h in data set [7] (2× MIC) and 3.97 h in [7] (4× MIC). For the same molecule, in [7] (4× MIC), the “PAE, times longer than that of N6NH2” value is given as 2.65 times. This molecule also returned an MHC in data set [8] greater than 128 µg/mL. In data set [8] (red cells of mouse, 1 h), this molecule gave a cytotoxicity and hemolysis of less than 1%. Further, the “percentages of florescent cells” value in data set [9] is listed as 16.1–86.5%. In addition, the “survival rate of mice” value in [10] was 60%. For the same molecule, the “reduction of intracellular bacteria” value in data set [12] is listed as 1.97 Log10 CFU.

The values are drawn from article PMC7985170, “Marine Peptide-N6NH2 and Its Derivative-GUON6NH2 Have Potent Antimicrobial Activity Against Intracellular Edwardsiella tarda in vitro and in vivo” (Frontiers in Microbiology, 2021).
